Experiments:
[1] = biological target: T1, recombinant PCSK9 (Homo sapiens, UniProt Q8NBP7); assay: DiI-LDL Uptake Assay in HepG2 cells; assay type: cell-based; details: 2.5 ug/mL PCSK9, DiI-LDL 5 ug/ml, read-out: Uptake Assay: % Inhibition of 2.5 ug/mL recombinant PCSK9 @ X compound dose; for inhibition at 1.25 µM: 1.25 uM compound
Protocol: The cells were incubated in a 96-well plate for a total of 16 h in the absence or presence of recombinant PCSK9 (final concentration 2.5 ug/ml) protein alone or recombinant PCSK9 protein pre-mixed with indicated concentration of experimental compounds (Cmpd #). After 16 h, DiI-LDL (final concentration 5 ug/ml) was added to the incubation mixtures. After 4 h, cells are stained with Hoechst 33342 for 30 minutes, then rinsed with phosphate buffered saline, and then a final volume of 100 ul phosphate buffered saline was added to each well. The fluorescence was measured (DiI: excitation at 550 nm and emission at 590 nm; Hoechst: excitation at 355 nm, emission at 460 nm). The percent recombinant PCSK9 inhibition was calculated as [‘Compound Dose DiI Fluorescence’-‘2.5 ug/ml PCSK9-treated DiI Fluorescence’]/[‘No PCSK9 DiI Fluorescence’-‘2.5 ug/ml PCSK9-treated DiI Fluorescence’]×100%.
Cellular DiI-LDL uptake can be measured using protocols adapted from Benjannet et al., “Effects of the prosegment and pH on the activity of PCSK9: evidence for additional processing events” J Biol Chem. 285(52): 40965-40978 (2010) and “Composition and Methods of Use of Small Molecules as Binding Ligands for the Modulation of Proprotein Convertase Subtilisin/Kexin Type 9 (PCSK9) Protein Activity” (WO2016029037), which are incorporated by reference in their entirety.
Cells, such as HepG2, HuH7, FL83B, or a cell line transfected with a short-hairpin PCSK9 knockdown sequence such as HepG2/shPCSK9, HuH7/shPCSK9, or FL83B/shPCSK9 are plated and cultured at 37° C. for 12-24 h. Culture media is removed and replaced with fresh lipoprotein-depleted culture media supplemented with 5 ug/mL of DiI-LDL (Kalen Biomedical) or lipoprotein-depleted culture media supplemented with 5 ug/mL of DiI-LDL plus a predetermined concentration of recombinant PCSK9, for example a 10 nM final concentration of PCSK9. Lipoprotein-depleted culture media can be composed of DMEM (Invitrogen) with 10% lipoprotein-depleted fetal bovine serum (Kalen Biomedical) and supplemented with penicillin-streptomycin (Life Technologies). Cells are dosed with small molecule test compounds at doses ranging from 0 nM to 100 uM.
Following an incubation period of specified length, such as 6 hours, Hoechst 33342 (AnaSpec) stain is added to the cell media per manufacturer's instructions and incubated for a specified length (e.g., 30 minutes). The lipoprotein-depleted media is removed and cells rinsed three times with phosphate buffered saline. A final volume of phosphate buffered saline is added back to the wells. The DiI fluorescence is measured with a plate reader using an exciting wavelength of 550 nm and the resulting emission at 590 nm is measured. The Hoechst stain fluorescence is measured with a plate reader using an exciting wavelength of 355 nm and the resulting emission at 460 nm is measured.
Cells are analyzed by for both Hoechst stain (DNA content) and DiI-LDL fluorescence. Cells incubated with small molecule compounds that are inhibitors of PCSK9 will be expected to show increased amounts of DiI-LDL fluorescence, relative to control (no compound) specimens, and cells incubated with small molecule compounds that are activators of PCSK9 will be expected to show decreased amounts of DiI-LDL fluorescence relative to control (no compound) specimens.

[2] = biological target: T1, recombinant PCSK9; assay: LDLR Flow / FACS Assay in HuH7 cells; assay type: cell-based; details: 5.0 ug/mL PCSK9, 6 h, read-out: LDLR Flow Assay: % Inhibition of 5.0 ug/mL recombinant PCSK9 @ X compound dose; for inhibition at 1.25 µM: Huh-7, 1.25 uM compound
Protocol: The cells were incubated in 24-well plates for a total of 6 h in the absence or presence of recombinant PCSK9 protein (final concentration of 5.0 ug/ml), or in the presence of PCSK9 protein mixed with indicated concentration of experimental compound (Cmpd #). After 6 hours, the cells were released from the plate, stained with anti-LDLR antibody, then rinsed, counterstained with DAPI, and then measured by fluorescence activated cell sorting (FACS). The percent recombinant PCSK9 inhibition was calculated as [‘Compound Dose LDLR Fluorescence’-‘5.0 ug/ml PCSK9-treated LDLR Fluorescence’]/[‘No PCSK9 Basal LDLR Fluorescence’-‘5.0 ug/ml PCSK9-treated LDLR Fluorescence’]×100%.
LDLR levels can be measured using flow cytometry or fluorescence activated cell sorting (FACS) using protocols adapted from Benjannet et al., “Effects of the prosegment and pH on the activity of PCSK9: evidence for additional processing events” J Biol Chem. 285(52): 40965-40978 (2010) and “Composition and Methods of Use of Small Molecules as Binding Ligands for the Modulation of Proprotein Convertase Subtilisin/Kexin Type 9 (PCSK9) Protein Activity” (WO2016029037), which are incorporated by reference in their entirety.
Cells, such as HepG2, HuH7, FL83B, or a cell line transfected with a short-hairpin PCSK9 knockdown sequence such as HepG2/shPCSK9, HuH7/shPCSK9, or FL83B/shPCSK9 are plated and cultured at 37° C. for 12-24 h. Culture media is removed and replaced with fresh culture media or culture media plus a predetermined amount of recombinant PCSK9, for example a 10 nM final concentration of PCSK9. Cell culture media can be composed of DMEM (Invitrogen) with 10% fetal bovine serum (Life Technologies) supplemented with penicillin-streptomycin (Life Technologies). Cells are dosed with small molecule test compounds at doses ranging from 0 nM to 100 uM […]
Cells are analyzed for both cell viability marker (dead cells) and LDLR in live cells using a flow cytometer per the manufacturer's operating manual. […]

T1 sequence (Q8NBP7 153-692): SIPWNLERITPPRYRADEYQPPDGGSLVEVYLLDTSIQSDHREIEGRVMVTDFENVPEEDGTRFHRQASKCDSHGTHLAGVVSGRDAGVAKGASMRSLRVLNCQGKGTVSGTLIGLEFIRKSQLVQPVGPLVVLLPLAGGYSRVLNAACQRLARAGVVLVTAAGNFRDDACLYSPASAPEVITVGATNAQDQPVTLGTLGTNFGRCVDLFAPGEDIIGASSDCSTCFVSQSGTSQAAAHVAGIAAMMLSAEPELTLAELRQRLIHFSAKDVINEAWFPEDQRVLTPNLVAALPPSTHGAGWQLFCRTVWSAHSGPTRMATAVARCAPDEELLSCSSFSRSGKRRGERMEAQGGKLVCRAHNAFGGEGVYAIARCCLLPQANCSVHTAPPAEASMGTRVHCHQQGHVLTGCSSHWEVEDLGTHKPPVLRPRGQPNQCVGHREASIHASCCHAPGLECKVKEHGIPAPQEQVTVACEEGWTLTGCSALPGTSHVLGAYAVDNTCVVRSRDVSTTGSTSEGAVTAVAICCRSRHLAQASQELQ

Row | inhibition at 1.25 µM [1] | inhibition at 1.25 µM [2] | inhibition at 10 µM ([1]; 10 uM compound) | inhibition at 10 µM ([2]; Huh-7, 10 uM compound) | SMILES
1 | ~28% | ~10% | – | – | Cc1cc(C[C@H](N)C(=O)NC(C)C)ccc1-c1cccc(O)c1 [Compound 4, (S)-2-amino-3-(3′-hydroxy-2-methyl-[1,1′-biphenyl]-4-yl)-N-isopropylpropanamide]
2 | ~44% | – | – | – | CC(C)NC(=O)[C@@H](N)Cc1ccc(-c2cccc(O)c2)cc1 [Compound 3, (S)-2-amino-3-(3′-hydroxy-[1,1′-biphenyl]-4-yl)-N-isopropylpropanamide]
3 | ~15% | ~15% | > 100% | ~55% | CC(C)NC(=O)[C@@H](N)Cc1ccc(-c2ccccc2)cc1 [Compound 1, (S)-3-([1,1′-biphenyl]-4-yl)-2-amino-N-isopropylpropanamide]
4 | ~40% | – | – | – | CC(C)NC(=O)[C@@H](N)Cc1ccc(-c2cc[nH]c(=O)c2)cc1 [Compound 2, (S)-2-amino-N-isopropyl-3-(4-(2-oxo-1,2-dihydropyridin-4-yl)phenyl)propanamide]

From patent US10821106B2, “Composition and methods of use of novel phenylalanine small organic compounds to directly modulate PCSK9 protein activity” (SRX Cardio, LLC, priority 2015, dated 2020)
